IC50 data for eleven compounds are collected here from US9856259B2, “Heterocyclic compounds and uses thereof” (Plexxikon Inc., priority 2014, dated 2018).

Assay [1] has as its system cancer cell lines / MV-4-11 Myc reporter cell line. As to the kind of experiment: Bromodomain cell assays of Example 8 (at least one of them). The format is cell-based. The following applies: Homo sapiens, MV4-11; at least one of the bromodomain cell assays described in Example 8. The procedure: (§1) In this study, we test compounds in different cancer cell lines. MV-4-11 and MOLM-13 are AML cell lines harboring a MLL-AF4 and MLL-AF9 translocation, respectively. MM.1S is a multiple myeloma cell line. SK—N-AS, IMR-32 and SK-N-BE(2) are neuroblastoma cell lines. IMR-32 and SK-N-BE(2) cell lines harbor MYCN amplifications.
(§2) MV-4-11, MM.1S, IMR-32, SK-N-AS and SK-N-BE(2) were obtained from ATCC (IL, USA) and MOLM-13 were purchased from DSMZ (Braunschweig, German). Cells are cultured as recommended by their sources. For growth inhibition studies 3000 cells are seeded in wells of a 96-well plate in 75 μL of culture media. After several hours, growth media containing compounds of formula (I) are added to the wells. Compound at a maximal concentration of 5 mM was serially diluted 1:3 for a total of 8 point titration with DMSO as a control. A 1 μL aliquot of each dilution point is added to 249 μL growth media and 75 μL is added to each well containing cells, providing 10 μM compound at the maximum concentration point. The final concentration of DMSO in all wells is 0.2%. Cells are incubated for 72 hours, and 25 μL of CellTiter Glo Reagent (Promega Ga., USA) is added to each well. Plates are shaken for approximately 10 minutes and chemiluminescent signal is read on Tecan microplate reader. The measured luminescence correlates directly with cell number.
(§3) All data is normalized to the mean of eight DMSO high control wells on each plate. A four parameter curve fit of the following formula was then applied: Y=a+(b−a)/(1+(x/c)^d) Where ‘a’ is the minimum, ‘b’ is the maximum, ‘c’ is the pIC50 and ‘d’ is the Hill slope. […] Myc Reporter Assay
In MV-4-11 cells, BRD2, BRD3 and BRD4 bind to the promoter region of MYC and regulate its transcription (Dawson M A et al. 2011). The literature bromodomain inhibitor iBET 151 could disrupt BRD4 recruitment to the MYC promoter and subsequently downregulate c-myc transcription (Dawson M A et al. 2011). Myc protein is a transcription factor that heterodimerizes with an obligatory partner Max and regulates the transcription of genes important for cell proliferation, differentiation, and apoptosis. This Myc reporter assay is used to monitor the inhibitory effect of compound of formula (I) on Myc dependent gene expression. Effective compounds could have potential therapeutic effects in Myc-driven tumors.
The MV-4-11 Myc reporter cell line is established by infecting MV-4-11 with VSV-g pseudotyped lentivirus expressing the firefly luciferase gene under the control of a minimal (m) CMV promoter and tandem repeats of the E-box transcriptional response element (TRE) (Qiagen IL, USA) and selecting cells in 2.5 μg/ml Puromycin.
The MV-4-11 Myc reporter cell line is maintained in Iscove's Modified Dulbecco's Medium containing 10% FBS, 1% PenStep and 2.5 μg/ml Puromycin. Cells are incubated at 37° C. in a humidified atmosphere with 5% CO2. 25,000 cells are seeded in 96-well plate in 50 μL of culture media. After several hours, growth media containing 2× compounds are added to the wells. Compound at a maximal concentration of 5 mM is serially diluted 1:3 for a total of 8 point titration. A 1 μl aliquot of each dilution point is added to 249 μl growth media and 50 μl is added to each well containing cells, providing 10 μM compound at the maximum concentration point. DMSO treated cells serve as a high control and 10 μM JQ1 treated cells serve as a low control. Cells are incubated for a further 24 hours and 25 μL of CellTiter-Fluo Reagent (Promega Ga., USA) is added to each well. Plates are shaken for approximately 2 minutes and incubated at 37° C. for 0.5 hour. Fluorescence signal is read in a Tecan Plate reader (λex=400 nm, λcm=505 nm). 25 μL of One-Glo Reagent (Promega Ga., USA) is then added to the plates. Chemiluminescent signal is read on Tecan plate reader. Values from the wells with no cells are subtracted from all samples for background correction. […]

In a further assay the test system is MV-4-11. Put plainly: Oncology cell growth assay, MV-4-11 3 d growth. The format is cell-based. The conditions noted are these: Homo sapiens, MV4-11; MV-4-11 cells, 72 hours, CellTiter Glo; read-out: Cell activity (IC50 μM) MV-4-11 3 d-Growtb. The procedure: as §1, §2, §3
Another assay deals with T1, BRD4-BD12 (Homo sapiens, UniProt O60885).
T1 construct: dual bromodomains (BRD4-BD12 (1-477), BRD4-BD12 (1-472)); six-His tag (N); made in house; host or cells: E. coli BL21-CodonPlus (DE3)
As to the kind of experiment: Alphascreen binding assay, BRD4(1 2) H4. The following applies: BRD4 dual bromodomains with acetylated Histone 4 peptide, read-out: Biochemical activity (IC50 μM) BRD4(1 2) H4. The procedure: Binding of compounds of formula (I) with bromodomain 2, 3 4 was assessed using Alphascreen binding assay. The inhibition of the interaction between bromodomain and its acetylated target protein (Filippakopoulos P et al. 2012) was measured quantitatively using recombinant BRD proteins, an acetylated Histone 4 peptide and AlphaScreen™ technology. In absence of inhibition the BRD protein bound to AlphaScreen™ nickel chelate acceptor beads can interact with the acetylated Histone 4 peptide which is immobilized by the AlphaScreen™ Streptavidin coated beads. This interaction brings donor and acceptor beads in proximity. The close proximity allows the singlet oxygen produced by laser excitation of the donor beads to reach the acceptor beads and generate a luminescence signal. BRD inhibitors result in a decrease in the proximity signal through an inhibition of the BRD acetylated peptide interaction.
Recombinant human bromodomains containing the N-terminal bromodomain (BRD2-BD1 (71-194), BRD3-BD1 (24-144) and BRD4-BD1 (44-164)) or dual bromodomains (BRD4-BD12 (1-477), BRD4-BD12 (1-472)) were prepared and purified as described in protein expression and purification session. The peptide is human Histone H41-21K5AcK8AcK12AcK16Ac-Biotin (Anaspec Calif., USA).
Protocol for BRD2, BRD3 and BRD4 assay: All components are prepared in buffer composed of 50 mM HEPES pH 7.5, 100 mM NaCl, 0.01% BSA, 0.01% Triton X-100, 2 mM DTT. 7 μL of Bromodomain protein and 7 μL of peptide are added to wells containing 1 μL of various concentrations of test compounds of formula (I) or DMSO vehicle in an Alphaplate (PerkinElmer Ga., USA) and incubated for 1 hour at room temperature. 4 μL donor and acceptor bead mixture is then added with final concentrations of 7.5 μg/ml. 30 minutes after bead addition, Alpha signal is read on the Envision spectrometer (λEx 680 nm, λEm 520-620 nm). Final concentrations of bromodomain proteins and peptide are as shown below.
All data was normalized to the mean of 16 high and 16 low control wells on each plate. A four parameter curve fit of the following formula was then applied: Y=a+(b−a)/(1+(x/c)^d) Where ‘a’ is the minimum, ‘b’ is the maximum, ‘c’ is the pIC50 and ‘d’ is the Hill slope. Protein Expression and Purification
Recombinant human bromodomains containing the N-terminal bromodomain (BRD2-BD1 (71-194), BRD3-BD1 (24-144) and BRD4-BD1 (44-164)) or dual bromodomains (BRD4-BD12 (1-477), BRD4-BD12 (1-472)) were expressed in E. coli cells (in a modified pET vector) with an N-terminal six-His tag and purified using a combination of both IMAC (Ni-affinity) and size exclusion chromatography steps.
Recombinant BRD proteins were expressed using the E. coli strain BL21-CodonPlus (DE3) (Agilent Technologies CA, USA). Cells were grown in Terrific Broth (TB) media to an OD600 of 1.2 at 37° C. at which temperature was reduced to 25° C., protein was induced with 1.0 mM IPTG for 12-18 hours and harvested by centrifugation at 8000×g for 20 minutes. Cells were re-suspended in 0.1M KPO4 pH 8.0, 250 mM NaCl, 10% Glycerol, 0.75% NP-40, 25 mM Imidazole, 5 mM BME with 0.2 mg/ml Lysosyme, 2.0 mM PMSF, 25 μg/ml DNAse I, incubated on ice for 30 minutes and lyzed with a cell disruptor (MicroFluidics MA, USA). The lysate was clarified by centrifugation at 20,000×g for 2 hours. The protein was captured with Ni-NTA resin (Life Technologies, USA). Contaminating proteins were washed off with 25 mM Tris-HCl pH 8.3, 250 mM NaCl, 12% Glycerol and 50 mM Imidazole. Following 3× wash steps, protein was eluted step wise using a 50 mM HEPES pH 7.5, 500 mM NaCl and 400 mM Imidazole. The protein was further purified using Gel Filtration column 26/600 Superdex 200 (GE Biosciences N.J., USA) in 50 mM HEPES pH 7.5, 250 mM NaCl. The protein was aliquoted and flash-frozen in liquid Nitrogen.

For `COC(=O)Cc1ccc(-c2nn([C@@H](C)c3ccccn3)c3cc(-c4c(C)noc4C)ccc23)cc1` [Compound P-2012, methyl 2-[4-[6-(3,5-dimethylisoxazol-4-yl)-1-[(1S)-1-(2-pyridyl)ethyl]indazol-3-yl]phenyl]acetate], the 50% inhibitory concentration (IC50) in assay [1] is below 10 µM; in the assay with MV-4-11, at most 1 µM; on BRD4-BD12, at most 1 µM.

In the case of `Cc1noc(C)c1-c1ccc2c(-c3ccc(C(=O)O)cc3)nn([C@@H](C)c3ccccn3)c2c1` [Compound P-2013, 4-[6-(3,5-dimethylisoxazol-4-yl)-1-[(1S)-1-(2-pyridyl)ethyl]indazol-3-yl]benzoic acid], the IC50 in assay [1] was below 10 µM; in the assay with MV-4-11 it was at most 1 µM; at BRD4-BD12 it was at most 1 µM.

In the case of `Cc1noc(C)c1-c1ccc2c(-c3ccc(CC(=O)O)cc3)nn([C@@H](C)c3ccccn3)c2c1` [Compound P-2014, 2-[4-[6-(3,5-dimethylisoxazol-4-yl)-1-[(1S)-1-(2-pyridyl)ethyl]indazol-3-yl]phenyl]acetic acid], the half-inhibitory concentration (IC50) in assay [1] was below 10 µM; in the assay with MV-4-11 it was at most 1 µM; at BRD4-BD12 it was at most 1 µM.

Consider `[2H]C([2H])(C1CCC(F)(F)CC1)n1ccc2ncc(-c3c(C)noc3C)nc21` [Compound P-2038, 4-[5-[dideuterio-(4,4-difluorocyclohexyl)methyl]pyrrolo[2,3-b]pyrazin-3-yl]-3,5-dimethyl-isoxazole], for which the results for the IC50 (in assay [1]; in the assay with MV-4-11; at BRD4-BD12) were below 10 µM, 1 to 10 µM and at most 1 µM, respectively.

Regarding `[2H]C([2H])(C1CCC(F)(F)CC1)n1cc(I)c2ncc(-c3c(C)noc3C)nc21` [Compound P-2039, 4-[5-[dideuterio-(4,4-difluorocyclohexyl)methyl]-7-iodo-pyrrolo[2,3-b]pyrazin-3-yl]-3,5-dimethyl-isoxazole], the concentration for half-maximal inhibition (IC50) in assay [1] was below 10 µM; with MV-4-11, at most 1 µM; on BRD4-BD12, at most 1 µM.

On to `[2H]C([2H])(C1CCC(F)(F)CC1)n1cc(-c2cnn(C)c2)c2ncc(-c3c(C)noc3C)nc21` [Compound P-2040, 4-[5-[dideuterio-(4,4-difluorocyclohexyl)methyl]-7-(1-methylpyrazol-4-yl)pyrrolo[2,3-b]pyrazin-3-yl]-3,5-dimethyl-isoxazole], for which the half-maximal inhibitory concentration (IC50) was below 10 µM in assay [1], at most 1 µM in the assay with MV-4-11 and at most 1 µM on BRD4-BD12.

Take `[2H]C([2H])(C1CCC(F)(F)CC1)n1ccc2ncc(-c3[nH]nnc3C)nc21` [Compound P-2041, 5-[dideuterio-(4,4-difluorocyclohexyl)methyl]-3-(4-methyl-1H-triazol-5-yl)pyrrolo[2,3-b]pyrazine]: the half-maximal inhibitory concentration (IC50) was below 10 µM in assay [1], 1 to 10 µM in the assay on MV-4-11 and 1 to 10 µM on BRD4-BD12.

In the case of `[2H]C([2H])(C1CCC(F)(F)CC1)n1ccc2ncc(-c3nn(C(F)F)nc3C)nc21` [Compound P-2042], the values for the IC50 (in assay [1]; in the assay with MV-4-11; at BRD4-BD12) were below 10 µM, 10 to 200 µM and 1 to 10 µM, respectively.

With `[2H]C([2H])(C1CCC(F)(F)CC1)n1cc(-c2ccc(C(=O)OC)cc2)c2ncc(-c3c(C)noc3C)nc21` [Compound P-2043, methyl 4-[5-[dideuterio-(4,4-difluorocyclohexyl)methyl]-3-(3,5-dimethylisoxazol-4-yl)pyrrolo[2,3-b]pyrazin-7-yl]benzoate], the 50% inhibitory concentration (IC50) is below 10 µM in assay [1], 1 to 10 µM with MV-4-11 and at most 1 µM at BRD4-BD12.

For the compound `[2H]C([2H])(C1CCC(F)(F)CC1)n1cc(-c2ccc(C(=O)O)cc2)c2ncc(-c3c(C)noc3C)nc21` [Compound P-2044, 4-[5-[dideuterio-(4,4-difluorocyclohexyl)methyl]-3-(3,5-dimethylisoxazol-4-yl)pyrrolo[2,3-b]pyrazin-7-yl]benzoic acid], the IC50 is below 10 µM in assay [1], at most 1 µM in the assay on MV-4-11 and at most 1 µM at BRD4-BD12.

In the case of `COC(=O)c1ccc(-c2cn(C(c3ccccc3)c3ccccn3)c3nc(-c4c(C)noc4C)cnc23)cc1` (stereo not drawn) [Compound P-2045, methyl 4-[3-(3,5-dimethylisoxazol-4-yl)-5-[phenyl(2-pyridyl)methyl]pyrrolo[2,3-b]pyrazin-7-yl]benzoate], the figures for the IC50 (in assay [1]; with MV-4-11; on BRD4-BD12) were below 10 µM, at most 1 µM and at most 1 µM, respectively.
